Assay results published in US6630469B2, “5-HT7 receptor antagonists” (Bristol-Myers Squibb Company, priority 2000, dated 2003).
Counter-ions that a name gives are not always drawn.

Legend:
[1] = test system: rat pup isolation-induced ultrasonic vocalization; experiment: rat pup isolation-induced ultrasonic vocalization test; type: in vivo
Source text: The compounds of this invention are useful as antagonists or partial agonists for the treatment of CNS and ocular disorders. […] A compound of this invention has also been assessed in an in vivo model, the rat pup isolation-induced ultrasonic vocalization test. This animal model has proven to be a sensitive and reliable method for detecting anxiolytics and antidepressants across a broad spectrum of pharmacological classes such as benzodiazepines, serotonin reuptake inhibitors, serotonin agonists and NMDA antagonists (Gardner, C.; Drug Devel. Res. 1985, 5,185-193 and Winslow, J.; Insel, T.; Psychopharmacology 1991, 105, 513-520).

human 5-HT7 receptor = biological target: T1, human 5-HT7 receptor (Homo sapiens, UniProt P34969); experiment: 5-HT7 Receptor Binding Assay; settings: membranes of CHO cells expressing human 5-HT7 receptor; 1 nM 3H-5-carboxamidotryptamine; 25° C., 60 minutes
T1 construct: expressed in transfected cells; host or cells: CHO cells
T1 sequence (P34969 whole entry): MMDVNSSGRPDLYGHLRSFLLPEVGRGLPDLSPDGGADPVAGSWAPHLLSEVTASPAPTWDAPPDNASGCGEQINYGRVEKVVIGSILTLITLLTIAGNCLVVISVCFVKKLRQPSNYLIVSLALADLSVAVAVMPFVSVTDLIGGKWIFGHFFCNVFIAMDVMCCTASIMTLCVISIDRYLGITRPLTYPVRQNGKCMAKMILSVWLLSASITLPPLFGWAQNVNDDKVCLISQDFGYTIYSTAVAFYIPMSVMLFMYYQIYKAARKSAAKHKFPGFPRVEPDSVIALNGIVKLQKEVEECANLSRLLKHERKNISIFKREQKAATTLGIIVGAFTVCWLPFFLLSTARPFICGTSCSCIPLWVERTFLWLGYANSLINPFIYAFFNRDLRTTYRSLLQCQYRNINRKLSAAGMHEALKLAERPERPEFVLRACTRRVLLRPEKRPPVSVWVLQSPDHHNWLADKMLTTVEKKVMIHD
In short: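 Membranes from CHO cells expressing human 5-HT7, 30 ug protein per well, incubated 60 min at 25° C in 50 mM HEPES with 0.1–1000 nM test compound and 1 nM ^3H-5-carboxamidotryptamine. Non-specific binding with 10 uM serotonin. Filtration and scintillation counting; IC50 by non-linear regression.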

Row | IC50 (human 5-HT7 receptor) [nM] | Structure (SMILES) | other results
1 | – | C[C@H](Nc1nc(N)nc(NCCOc2ccccc2)n1)c1ccccc1 (as salt: TFA) [Compound 41, N^2-[2-(Phenoxy)ethyl]-N^4-[(1S)-1-phenylethyl]-1,3,5-triazine-2,4,6-triamine] | melting point: 207 to 208 °C
2 | – | C[C@H](Nc1nc(N)nc(NCCc2ccccn2)n1)c1ccc(F)cc1 (as salt: TFA) [Example 18, N^2-[(1S)-1-(4-Fluorophenyl)ethyl]-N^4-[2-(2-pyridinyl)ethyl]-1,3,5-triazine-2,4,6-triamine] | melting point: 161 °C
3 | – | Cc1ccc([C@H](C)Nc2nc(N)nc(NCCOc3ccccc3)n2)cc1 [N^2-[(1S)-1-(4-Methylphenyl)ethyl]-N^4-(2-phenoxyethyl)-1,3,5-triazine-2,4,6-triamine] | amount of compound dosed which reduced the rat pup ultrasonic vocalization by 50% (ID50) [1]: 23.8 mg/kg; locomotor activity at doses suppressing ultrasonic vocalization [1]: did not suppress locomotor activity; supression of rat pup ultrasonic vocalization [1]: dose dependent and significant supression of rat pup ultrasonic vocalization
4 | ≤ 50 | CC(Nc1ccnc(NCCOc2ccccc2)n1)c1ccc(Cl)cc1 (centres unmarked) [N^4-[1-(4-Chlorophenyl)ethyl]-N^2-(2-phenoxyethyl)pyrimidine-2,4-diamine] | –
5 | ≤ 50 | CC(Nc1ccnc(NCCc2ccccc2)n1)c1ccc(Cl)cc1 (centres unmarked) [N^4-[1-(4-Chlorophenyl)ethyl]-N^2-(2-phenylethyl)pyrimidine-2,4-diamine] | –
6 | ≤ 50 | CC(Nc1ccnc(NCCc2ccccc2)n1)c1ccc(F)cc1 (centres unmarked) [N^4-[1-(4-Fluorophenyl)ethyl]-N^2-(2-phenylethyl)pyrimidine-2,4-diamine] | –
7 | 101 to 200 | C[C@H](Nc1cc(NCCc2ccc(N)cc2)ncn1)c1ccccc1 [N^4-[2-(4-Aminophenyl)ethyl]-N^6-[(1S)-1-phenylethyl]pyrimidine-4,6-diamine] | –
8 | 101 to 200 | C[C@H](Nc1cc(NCCc2ccc(Br)cc2)ncn1)c1ccccc1 [N^4-[2-(4-Bromoophenyl)ethyl]-N^6-[(1S)-1-phenylethyl]pyrimidine-4,6-diamine] | –
9 | ≤ 50 | CC(Nc1nccc(NCCOc2ccc(F)cc2)n1)c1ccccc1 (centres unmarked) [N^4-[2-(4-Fluorophenoxy)ethyl]-N^2-(1-phenylethyl)pyrimidine-2,4-diamine] | –
10 | ≤ 50 | C[C@H](Nc1cc(NCCc2ccc(O)cc2)ncn1)c1ccccc1 [N^4-[2-(4-Hydroxyphenyl)ethyl]-N^6-[(1S)-1-phenylethyl]pyrimidine-4,6-diamine] | –
11 | ≤ 50 | Fc1ccc(C(F)(F)F)cc1CNc1ccnc(NCCOc2ccccc2)n1 [N^4-[2-Fluoro-5-(trifluoromethyl)phenylmethyl]-N^2-(2-phenoxyethyl)pyrimidine-2,4-diamine] | –
12 | 101 to 200 | Fc1cc(CNc2ccnc(NCCOc3ccccc3)n2)cc(C(F)(F)F)c1 [N^4-[3-Fluoro-5-(trifluoromethyl)phenylmethyl]-N^2-(2-phenoxyethyl)pyrimidine-2,4-diamine] | –
13 | ≤ 50 | CC(C)c1ccc(CNc2ccnc(NCCOc3ccccc3)n2)cc1 [N^4-[4-(1-Methylethyl)phenylmethyl]-N^2-(2-phenoxyethyl)pyrimidine-2,4-diamine] | –
14 | 51 to 100 | Fc1ccc(CNc2ccnc(NCCOc3ccccc3)n2)cc1C(F)(F)F [N^4-[4-Fluoro-3-(trifluoromethyl)phenylmethyl]-N^2-(2-phenoxyethyl)pyrimidine-2,4-diamine] | –
15 | 101 to 200 | Fc1ccc(CNc2ccnc(NCCc3ccccc3)n2)cc1C(F)(F)F [N^4-[4-Fluoro-3-(trifluoromethyl)phenylmethyl]-N^2-(2-phenylethyl)pyrimidine-2,4-diamine] | –
16 | 51 to 100 | Cc1ccc([C@@H](C)Nc2ccnc(NCCOc3ccccc3)n2)cc1 [N^4-[(1R)-1-(4-Methylphenyl)ethyl]-N^2-(2-phenoxyethyl)pyrimidine-2,4-diamine] | –
17 | ≤ 50 | Cc1ccc([C@H](C)Nc2ccnc(NCCOc3ccccc3)n2)cc1 [N^4-[(1S)-1-(4-Methylphenyl)ethyl]-N^2-(2-phenoxyethyl)pyrimidine-2,4-diamine] | –
18 | ≤ 50 | C[C@H](Nc1ccnc(NCCc2ccccc2)n1)c1ccccc1 [N^4-[(1S)-1-Phenylethyl]-N^2-(2-phenylethyl)pyrimidine-2,4-diamine] | –
